One assay deals with Human CDK7/CycH/MAT1 (Homo sapiens (Human), UniProt P50613). Kind of assay: Radiometric protein kinase assay (33PanQinase Activity Assay), CDK7. The format is biochemical. Particulars: Table 1; ATP 3 μM. As for the experimental part: (§1) A radiometric protein kinase assay (^33PanQinase® Activity Assay) was used for measuring the kinase activity of the two protein kinases (CDK12/CDK7). All kinase assays were performed in 96-well FlashPlates™ from PerkinElmer (Boston, MA, USA) in a 50 μL reaction volume.
Sequence of Human CDK7/CycH/MAT1 (P50613 whole entry): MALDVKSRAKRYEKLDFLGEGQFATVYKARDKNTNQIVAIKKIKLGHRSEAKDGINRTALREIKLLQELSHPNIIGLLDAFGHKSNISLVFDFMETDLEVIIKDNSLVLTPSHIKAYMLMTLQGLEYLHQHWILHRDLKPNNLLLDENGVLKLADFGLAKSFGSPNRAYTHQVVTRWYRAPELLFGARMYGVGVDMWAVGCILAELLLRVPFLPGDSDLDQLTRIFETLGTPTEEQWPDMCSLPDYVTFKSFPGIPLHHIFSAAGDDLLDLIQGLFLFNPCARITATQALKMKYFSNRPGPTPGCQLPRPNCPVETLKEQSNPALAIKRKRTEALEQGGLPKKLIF
Sequence of Human CDK7/CycH/MAT1 (P51946 whole entry partner): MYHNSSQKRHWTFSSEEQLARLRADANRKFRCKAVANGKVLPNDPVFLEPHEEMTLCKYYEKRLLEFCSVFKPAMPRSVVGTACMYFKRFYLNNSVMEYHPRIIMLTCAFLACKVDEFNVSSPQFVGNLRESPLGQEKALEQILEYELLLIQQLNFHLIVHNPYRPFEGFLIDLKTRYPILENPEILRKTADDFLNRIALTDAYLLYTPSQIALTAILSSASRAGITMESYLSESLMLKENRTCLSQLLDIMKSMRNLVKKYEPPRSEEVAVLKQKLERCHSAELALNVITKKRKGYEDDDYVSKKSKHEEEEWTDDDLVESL
Sequence of Human CDK7/CycH/MAT1 (P51948 whole entry partner): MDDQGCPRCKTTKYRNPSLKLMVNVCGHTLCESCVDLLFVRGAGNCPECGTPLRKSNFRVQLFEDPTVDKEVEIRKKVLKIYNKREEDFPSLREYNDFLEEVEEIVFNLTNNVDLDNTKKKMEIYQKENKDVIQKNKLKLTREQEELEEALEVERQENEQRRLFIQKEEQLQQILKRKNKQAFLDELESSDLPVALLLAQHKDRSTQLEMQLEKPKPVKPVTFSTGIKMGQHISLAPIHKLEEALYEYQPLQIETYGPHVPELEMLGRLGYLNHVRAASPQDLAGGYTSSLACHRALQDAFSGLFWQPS
(§2) The reaction cocktail was pipetted in four steps in the following order: • 20 μL of assay buffer (standard buffer) • 5 μL of ATP solution (in H2O) • 5 μL of test compound (in 10% DMSO) • 10 μL of substrate/10 μL of enzyme solution (premixed)
(§3) The reaction mixture was incubated at 30° C. for 60 min and then stopped by the addition of 2% (v/v) H3PO4. Plates were aspirated and washed two times with 200 μL 0.9% (w/v) NaCl. Incorporation of ^33Pi was determined with a microplate scintillation count (Microbeta, Wallac).
(§4) The fitting method used was a least-squares fit.

A further assay deals with Human CDK12 wt/CycK (Homo sapiens (Human), UniProt Q9NYV4). Nature of the assay: Radiometric protein kinase assay (33PanQinase Activity Assay), CDK12. Particulars: for CDK7/CDK12: ratio greater than 1 indicated selectivity for CDK12. Format: biochemical. The method, then: as §1, §2, §3, §4
Sequence of Human CDK12 wt/CycK (Q9NYV4 whole entry): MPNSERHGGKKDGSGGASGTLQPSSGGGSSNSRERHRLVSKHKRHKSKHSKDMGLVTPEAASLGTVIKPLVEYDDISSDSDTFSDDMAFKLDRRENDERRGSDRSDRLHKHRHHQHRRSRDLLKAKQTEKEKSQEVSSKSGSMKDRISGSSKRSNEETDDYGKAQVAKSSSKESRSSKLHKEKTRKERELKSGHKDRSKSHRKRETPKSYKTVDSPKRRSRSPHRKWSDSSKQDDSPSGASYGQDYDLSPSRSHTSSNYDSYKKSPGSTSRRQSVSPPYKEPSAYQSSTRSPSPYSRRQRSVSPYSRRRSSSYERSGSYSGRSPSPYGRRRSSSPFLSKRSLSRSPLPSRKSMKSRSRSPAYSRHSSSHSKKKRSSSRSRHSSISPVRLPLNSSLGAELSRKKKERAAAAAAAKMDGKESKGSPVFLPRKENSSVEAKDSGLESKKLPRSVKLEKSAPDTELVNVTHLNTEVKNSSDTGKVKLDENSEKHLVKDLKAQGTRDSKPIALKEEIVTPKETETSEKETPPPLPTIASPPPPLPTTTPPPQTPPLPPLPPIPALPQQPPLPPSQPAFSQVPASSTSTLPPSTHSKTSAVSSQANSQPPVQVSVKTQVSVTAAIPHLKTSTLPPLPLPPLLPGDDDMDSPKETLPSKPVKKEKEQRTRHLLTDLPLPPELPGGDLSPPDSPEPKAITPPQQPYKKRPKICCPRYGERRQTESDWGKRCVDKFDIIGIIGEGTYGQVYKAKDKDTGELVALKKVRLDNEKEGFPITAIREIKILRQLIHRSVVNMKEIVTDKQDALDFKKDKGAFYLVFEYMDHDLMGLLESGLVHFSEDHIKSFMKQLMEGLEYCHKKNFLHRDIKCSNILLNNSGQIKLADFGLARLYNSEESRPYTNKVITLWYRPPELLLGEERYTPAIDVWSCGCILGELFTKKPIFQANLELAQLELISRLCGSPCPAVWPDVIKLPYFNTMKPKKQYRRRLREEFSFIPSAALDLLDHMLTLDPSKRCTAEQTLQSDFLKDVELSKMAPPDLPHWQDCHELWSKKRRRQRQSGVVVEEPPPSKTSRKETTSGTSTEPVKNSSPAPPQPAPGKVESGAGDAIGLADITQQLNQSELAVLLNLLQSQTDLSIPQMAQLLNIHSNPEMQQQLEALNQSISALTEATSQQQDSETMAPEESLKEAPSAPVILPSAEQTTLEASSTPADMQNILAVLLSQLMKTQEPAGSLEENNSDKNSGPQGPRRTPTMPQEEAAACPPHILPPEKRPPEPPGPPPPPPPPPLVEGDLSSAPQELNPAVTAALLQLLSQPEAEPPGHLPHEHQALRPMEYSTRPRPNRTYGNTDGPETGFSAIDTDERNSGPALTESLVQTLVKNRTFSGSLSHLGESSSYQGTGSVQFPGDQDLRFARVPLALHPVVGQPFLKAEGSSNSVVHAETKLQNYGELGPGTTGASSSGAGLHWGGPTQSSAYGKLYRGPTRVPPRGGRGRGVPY
Sequence of Human CDK12 wt/CycK (O75909 whole entry partner): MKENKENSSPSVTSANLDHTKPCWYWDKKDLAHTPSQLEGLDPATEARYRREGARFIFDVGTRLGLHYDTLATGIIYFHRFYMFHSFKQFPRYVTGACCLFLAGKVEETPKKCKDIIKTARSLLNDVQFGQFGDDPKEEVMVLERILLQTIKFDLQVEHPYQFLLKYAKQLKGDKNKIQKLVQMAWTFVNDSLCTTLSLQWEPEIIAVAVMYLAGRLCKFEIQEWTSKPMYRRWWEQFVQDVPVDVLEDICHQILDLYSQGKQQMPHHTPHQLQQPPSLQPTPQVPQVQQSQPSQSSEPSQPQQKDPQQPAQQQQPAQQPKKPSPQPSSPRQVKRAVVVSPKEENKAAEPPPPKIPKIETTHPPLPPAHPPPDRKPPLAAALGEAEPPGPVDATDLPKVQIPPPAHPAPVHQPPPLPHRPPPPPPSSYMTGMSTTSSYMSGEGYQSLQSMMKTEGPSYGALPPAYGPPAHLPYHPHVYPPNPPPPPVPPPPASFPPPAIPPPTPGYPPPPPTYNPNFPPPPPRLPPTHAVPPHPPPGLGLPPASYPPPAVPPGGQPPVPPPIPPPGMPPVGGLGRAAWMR
The next assay deals with A673 cells. Kind of assay: Cellular potency in A673 cells. Conditions: for IC50: Homo sapiens, A673, Table 3, A673 cells; for Ratio of Biochemical Potency: Cellular Potency: Table 3, ratio >0.9 is an indicator of Cyclin K degradation. Format: cell-based.
The mark [1] stands for this setting: Table 1, ATP 0.3 μM, read-out: CDK12 IC50.
The mark [2] stands for this setting: Table 3, CDK12 kinase activity, read-out: Biochemical Potency IC50.

Like-named read-outs stand apart in the source and are kept apart here.

This note sets out measurements from patent US12473303B2, “4-[[(7-aminopyrazolo[1,5-a]pyrimidin-5-yl)amino methyl]piperidin-3-ol compounds and their therapeutic use” (CARRICK THERAPEUTICS LIMITED, priority 2019, dated 2025).

As usually defined, the IC50 is the point on the concentration scale where inhibition reaches its midpoint. `Cc1cccn2cc(CNc3cc(NC[C@H]4CCNC[C@@H]4O)nc4c(C5CCC5)cnn34)nc12` [H-APPAMP-029, (3R,4R)-4-(((3-cyclobutyl-7-(((8-methylimidazo[1,2-a]pyridin-2-yl)methyl)amino)pyrazolo[1,5-a]pyrimidin-5-yl)amino)methyl)piperidin-3-ol]: the IC50 against Human CDK7/CycH/MAT1 turned out to be 196 nM; on Human CDK12 wt/CycK (setting [1]), 65 nM; on Human CDK12 wt/CycK (setting [2]), 65 nM; in the assay with A673 cells, 18.5 nM. For the same compound, on Human CDK12 wt/CycK (Table 1), the CDK7/CDK12 was determined as 3.0. Moreover, the “Ratio of Biochemical Potency: Cellular Potency” value (shortened to “Ratio of Biochemical Potency”) in the assay with A673 cells is 3.5.
`O[C@H]1CNCC[C@@H]1CNc1cc(NCc2cn3c(C4CC4)cccc3n2)n2ncc(C3CC3)c2n1` [H-APPAMP-030, (3R,4R)-4-(((3-cyclopropyl-7-(((5-cyclopropylimidazo[1,2-a]pyridin-2-yl)methyl)amino)pyrazolo[1,5-a]pyrimidin-5-yl)amino)methyl)piperidin-3-ol]: the IC50 was 274 nM against Human CDK7/CycH/MAT1, 75 nM on Human CDK12 wt/CycK (setting [1]), 75 nM at Human CDK12 wt/CycK (setting [2]) and 8.7 nM in the assay on A673 cells. In addition, at Human CDK12 wt/CycK (Table 1), the CDK7/CDK12 stood at 3.7. For the same compound, the “Ratio of Biochemical Potency” value in the assay with A673 cells is 8.6.
`CCc1cnn2c(NCc3cn4c(C)cccc4n3)cc(NC[C@H]3CCNC[C@@H]3O)nc12` [H-APPAMP-031, (3R,4R)-4-(((3-ethyl-7-(((5-methylimidazo[1,2-a]pyridin-2-yl)methyl)amino)pyrazolo[1,5-a]pyrimidin-5-yl)amino)methyl)piperidin-3-ol]: the IC50 on Human CDK7/CycH/MAT1 amounted to 919 nM; at Human CDK12 wt/CycK (setting [1]), 24 nM; at Human CDK12 wt/CycK (setting [2]) it was 24 nM; with A673 cells it was 2.2 nM. Further, the CDK7/CDK12 on Human CDK12 wt/CycK (Table 1) is given as 38.3. In the assay with A673 cells, the “Ratio of Biochemical Potency” value was 11.
As for `Cc1cc(C)n2cc(CNc3cc(NC[C@H]4CCNC[C@@H]4O)nc4c(C5CC5)cnn34)nc2c1` [H-APPAMP-032, (3R,4R)-4-(((3-cyclopropyl-7-(((5,7-dimethylimidazo[1,2-a]pyridin-2-yl)methyl)amino)pyrazolo[1,5-a]pyrimidin-5-yl)amino)methyl)piperidin-3-ol], the IC50 against Human CDK7/CycH/MAT1 was found to be 859 nM; at Human CDK12 wt/CycK (setting [1]), 45 nM; on Human CDK12 wt/CycK (setting [2]) it was 45 nM; in the assay with A673 cells, 6.1 nM. Moreover, on Human CDK12 wt/CycK (Table 1), the CDK7/CDK12 worked out at 19.1. Besides, the “Ratio of Biochemical Potency” value with A673 cells is on record as 7.4.
As for `O[C@H]1CNCC[C@@H]1CNc1cc(NCc2cn3cc(C(F)(F)F)cc(Cl)c3n2)n2ncc(C3CC3)c2n1` [H-APPAMP-033, (3R,4R)-4-(((7-(((8-chloro-6-(trifluoromethyl)imidazo[1,2-a]pyridin-2-yl)methyl)amino)-3-cyclopropylpyrazolo[1,5-a]pyrimidin-5-yl)amino)methyl)piperidin-3-ol], the IC50 against Human CDK7/CycH/MAT1 came to 1060 nM; on Human CDK12 wt/CycK (setting [1]), 62 nM; on Human CDK12 wt/CycK (setting [2]), 62 nM; in the assay with A673 cells, 5.7 nM. Also, the CDK7/CDK12 on Human CDK12 wt/CycK (Table 1) is given as 17.1. For the same compound, the “Ratio of Biochemical Potency” value in the assay with A673 cells came out at 11.
Regarding `CCc1cnn2c(NCc3cn4c(C(F)(F)F)cccc4n3)cc(NC[C@H]3CCNC[C@@H]3O)nc12` [H-APPAMP-034, (3R,4R)-4-(((3-ethyl-7-(((5-(trifluoromethyl)imidazo[1,2-a]pyridin-2-yl)methyl)amino)pyrazolo[1,5-a]pyrimidin-5-yl)amino)methyl)piperidin-3-ol], the IC50 against Human CDK7/CycH/MAT1 stood at 152 nM; at Human CDK12 wt/CycK (setting [1]), 173 nM; at Human CDK12 wt/CycK (setting [2]), 173 nM; in the assay on A673 cells it was 12.1 nM. Besides, the CDK7/CDK12 at Human CDK12 wt/CycK (Table 1) is on record as 0.9. Besides, in the assay on A673 cells, the “Ratio of Biochemical Potency” value came to 14.
For the compound `O[C@H]1CNCC[C@@H]1CNc1cc(NCc2cn3ccc(C(F)(F)F)cc3n2)n2ncc(C3CC3)c2n1` [H-APPAMP-035, (3R,4R)-4-(((3-cyclopropyl-7-(((7-(trifluoromethyl)imidazo[1,2-a]pyridin-2-yl)methyl)amino)pyrazolo[1,5-a]pyrimidin-5-yl)amino)methyl)piperidin-3-ol], the IC50 turned out to be 1290 nM on Human CDK7/CycH/MAT1, 44 nM at Human CDK12 wt/CycK (setting [1]), 44 nM at Human CDK12 wt/CycK (setting [2]) and 17.3 nM in the assay with A673 cells. The CDK7/CDK12 at Human CDK12 wt/CycK (Table 1) amounted to 29.3. In addition, the “Ratio of Biochemical Potency” value in the assay on A673 cells was 2.5.
